From ChEMBL document CHEMBL4130638, “Discovery of the Polyamine Conjugate with Benzo[ cd]indol-2(1 H)-one as a Lysosome-Targeted Antimetastatic Agent” (J Med Chem, 2018)
Calls of active or inactive are those of the source. The calls are words filed in the database; no cut-off is given here.

Experiments:
[1] = test system: HCT-116; test: Induction of autophagy in human HCT116 cells at 5 to 20 uM after 24 hrs in presence of autophagy inhibitor 3-MA by MDC staining based flow cytometry; assay type: functional, cell-based
[2] = test system: HCT-116; test: Downregulation of cathepsin-B protein expression in human HCT116 cells after 24 hrs by Western blot method; assay type: functional, cell-based
[3] = test system: HCT-116; test: Downregulation of Bcl2 protein expression in human HCT116 cells up to 10 uM after 24 hrs in presence of autophagy inhibitor 3-MA by Western blot method; assay type: functional, cell-based
[4] = test system: Mus musculus; test: Toxicity in Balb/c mouse implanted with mouse CT26 cells assessed as increase in spleen weight at 1 mg/kg, iv for 7 consecutive days starting from day 8 post tumor implantation; assay type: organism-based; details: in vivo
[5] = test system: CT26; test: Induction of autophagy in mouse CT26 cells at 10 to 20 uM after 24 hrs in presence of autophagy inhibitor 3-MA by MDC staining based flow cytometry; assay type: functional, cell-based
[6] = test system: CT26; test: Antitumor activity against mouse CT26 cells implanted in Balb/c mouse assessed as solid tumor growth inhibition at 1 mg/kg, iv for 14 consecutive days measured on day 15 relative to control; assay type: functional; details: 360 h, read-out: TGI
[7] = test system: HCT-116; test: Upregulation of LAMP2 protein expression in human HCT116 cells at 10 uM after 24 hrs by Western blot method; assay type: functional, cell-based
[8] = test system: HCT-116; test: Induction of apoptosis in human HCT116 cells assessed as live cells at 10 uM after 24 hrs by annexin V-FITC/propidium iodide staining based flow cytometry (reference value: 89.97%); assay type: functional
[9] = test system: HCT-116; test: Induction of apoptosis in human HCT116 cells assessed as early apoptotic cells after 24 hrs by annexin V-FITC/propidium iodide staining based flow cytometry; assay type: functional, cell-based
[10] = test system: CT26; test: Induction of apoptosis in mouse CT26 cells after 24 hrs by acridine orange and ethidium bromide staining based high content screening analysis; assay type: functional, cell-based
[11] = test system: HCT-116; test: Downregulation of beta-catenin protein expression in human HCT116 cells after 24 hrs by Western blot method; assay type: functional, cell-based
[12] = test system: HCT-116; test: Induction of autophagy in human HCT116 cells at 1 to 20 uM after 24 hrs by Lyso staining based flow cytometry; assay type: functional, cell-based
[13] = test system: K562; test: Growth inhibition of human K562 cells after 48 hrs by MTT assay; assay type: functional, cell-based; details: K562, 48 h
[14] = test system: HCT-116; test: Decrease in putrescine level in human HCT116 cells at 2.5 to 10 uM after 24 hrs by G1321A fluorescence detector coupled HPLC analysis; assay type: functional, cell-based
[15] = test system: HCT-116; test: Downregulation of cathepsin-L protein expression in human HCT116 cells after 24 hrs by Western blot method; assay type: functional, cell-based
[16] = test system: HCT-116; test: Downregulation of MMP2 protein expression in human HCT116 cells after 24 hrs by Western blot method; assay type: functional, cell-based
[17] = test system: HCT-116; test: Decrease in spermine level in human HCT116 cells at 2.5 to 10 uM after 24 hrs by G1321A fluorescence detector coupled HPLC analysis; assay type: functional, cell-based
[18] = test system: HCT-116; test: Downregulation of Akt protein expression in human HCT116 cells up to 10 uM after 24 hrs by Western blot method; assay type: functional, cell-based
[19] = test system: HCT-116; test: Upregulation of cleaved caspase-8 protein expression in human HCT116 cells up to 10 uM after 24 hrs in presence of autophagy inhibitor 3-MA by Western blot method; assay type: functional, cell-based
[20] = test system: CT26; test: Induction of apoptosis in mouse CT26 cells assessed as late apoptotic cells at 10 uM after 24 hrs by annexin V-FITC/propidium iodide staining based flow cytometry (reference value: 2.26%); assay type: functional
[21] = test system: HCT-116; test: Downregulation of mTOR protein expression in human HCT116 cells after 24 hrs by Western blot method; assay type: functional, cell-based
[22] = test system: CT26; test: Induction of apoptosis in mouse CT26 cells assessed as necrotic cells at 10 uM after 24 hrs by annexin V-FITC/propidium iodide staining based flow cytometry (reference value: 4.36%); assay type: functional
[23] = test system: HCT-116; test: Induction of apoptosis in human HCT116 cells assessed as early apoptotic cells at 10 uM after 24 hrs in presence of pan-caspase inhibitor Z-VAD-FMK by annexin V-FITC/propidium iodide staining based flow cytometry (reference value: 4.1%); assay type: functional
[24] = test system: CT26; test: Induction of autophagy in mouse CT26 cells after 24 hrs by MDC staining based flow cytometry; assay type: functional, cell-based
[25] = test system: HCT-116; test: Induction of autophagy in human HCT116 cells after 24 hrs by MDC staining based flow cytometry; assay type: functional, cell-based
[26] = test system: HCT-116; test: Induction of apoptosis in human HCT116 cells after 24 hrs by acridine orange and ethidium bromide staining based high content screening analysis; assay type: functional, cell-based
[27] = test system: CT26; test: Antimigratory activity against mouse CT26 cells after 24 hrs by crystal violet staining based transwell assay; assay type: functional, cell-based
[28] = test system: HCT-116; test: Induction of apoptosis in human HCT116 cells assessed as necrotic cells at 10 uM after 24 hrs by annexin V-FITC/propidium iodide staining based flow cytometry (reference value: 3.9%); assay type: functional
[29] = test system: HCT-116; test: Upregulation of p53 protein expression in human HCT116 cells after 24 hrs by Western blot method; assay type: functional, cell-based
[30] = Drug uptake in human HCT116 cells by confocal microscopic method; assay type: ADME, cell-based; details: hct-116
[31] = test system: CT26; test: Induction of autophagy in mouse CT26 cells at 10 to 20 uM after 24 hrs in presence of autophagy inhibitor 3-MA by Lyso staining based flow cytometry; assay type: functional, cell-based
[32] = Drug uptake in lysosomes isolated from human HCT116 cells at 10 uM after 8 hrs by Lyso-tracker staining based confocal microscopic method; assay type: ADME, subcellular, Lysosome; details: hct-116, 8 h
[33] = test system: HCT-116; test: Downregulation of cathepsin-D protein expression in human HCT116 cells after 24 hrs by Western blot method; assay type: functional, cell-based
[34] = test system: CT26; test: Growth inhibition of mouse CT26 cells after 24 hrs by MTT assay; assay type: functional, cell-based
[35] = test system: CT26; test: Induction of apoptosis in mouse CT26 cells assessed as late apoptotic cells at 10 uM after 24 hrs in presence of autophagy inhibitor 3-MA by annexin V-FITC/propidium iodide staining based flow cytometry (reference value: 2.26%); assay type: functional
[36] = molecular target: Serine/threonine-protein kinase mTOR (Homo sapiens) (UniProt P42345); test: Inhibition of mTOR phosphorylation in human HCT116 cells after 24 hrs by Western blot method; assay type: cell-based
[37] = test system: CT26; test: Antimetastatic activity against mouse CT26 cells implanted in Balb/c mouse assessed as inhibition of pulmonary metastasis nodules at 1 mg/kg, iv for 7 consecutive days starting from day 8 post tumor implantation measured on day 15 post tumor implantation relative to control; assay type: functional
[38] = test system: HCT-116; test: Downregulation of p62 protein expression in human HCT116 cells after 24 hrs by Western blot method; assay type: functional, cell-based
[39] = Drug uptake in human HCT116 cells assessed as PAT-mediated drug internalization at 2.5 to 7.5 uM after 24 hrs in presence of spermidine by high content screening analysis; assay type: ADME, cell-based
[40] = test system: HCT-116; test: Growth inhibition of human HCT116 cells at 2.5 to 7.5 uM after 24 hrs in presence of spermidine by MTT assay; assay type: functional, cell-based
[41] = test system: CT26; test: Induction of apoptosis in mouse CT26 cells assessed as live cells at 10 uM after 24 hrs in presence of autophagy inhibitor 3-MA by annexin V-FITC/propidium iodide staining based flow cytometry (reference value: 89.47%); assay type: functional

With `Cl.Cl.Cl.NCCCCNCCCCNCCCCN1C(=O)c2cccc3cccc1c23` as the compound, how does the Activity [1] read?
Its Activity is “inactive”.

And the Activity [2]?
Its Activity is “Dose-dependent effect”.

What about the Activity [3] of the same compound?
Its Activity is “inactive”.

What about the Activity [4] of the same compound?
Its Activity is “Toxic”.

And the Activity [5]?
The Activity was “inactive”.

What about the inhibition in vivo at 1 mg/kg [6] of the same compound?
Its inhibition in vivo at 1 mg/kg is 46.9%.

And the Activity [7]?
Its Activity is “Active”.

What about the Activity [8] of the same compound?
The Activity was 38.14%.

What about the Activity [9] of the same compound?
Its Activity is “Dose-dependent effect”.

What about the Activity [10] of the same compound?
Its Activity is “Dose-dependent effect”.

What about the Activity [11] of the same compound?
Its Activity is “Dose-dependent effect”.

What about the Activity [12] of the same compound?
The Activity was “Active”.

And the IC50 [13]?
Its IC50 is 12 µM.

And the Activity [14]?
Its Activity is “inactive”.

What about the Activity [15] of the same compound?
The Activity was “Dose-dependent effect”.

And the Activity [16]?
Its Activity is “Dose-dependent effect”.

What about the Activity [17] of the same compound?
Its Activity is “Active”.

What about the Activity [18] of the same compound?
The Activity was “Active”.

What about the Activity [19] of the same compound?
Its Activity is “inactive”.

What about the Activity [20] of the same compound?
Its Activity is 23.22%.

And the Activity [21]?
The Activity was “Dose-dependent effect”.

And the Activity [22]?
Its Activity is 3.56%.

What about the Activity [23] of the same compound?
The Activity was 11.4%.

And the Activity [24]?
Its Activity is “Dose-dependent effect”.

What about the Activity [25] of the same compound?
Its Activity is “Dose-dependent effect”.

And the Activity [26]?
The Activity was “Dose-dependent effect”.

What about the Activity [27] of the same compound?
Its Activity is “Dose-dependent effect”.

What about the Activity [28] of the same compound?
The Activity was 2.97%.

What about the Activity [29] of the same compound?
Its Activity is “Dose-dependent effect”.

And the Drug uptake [30]?
The Drug uptake was “Dose-dependent effect and Tde”.

What about the Activity [31] of the same compound?
Its Activity is “inactive”.

And the Drug uptake [32]?
The Drug uptake was “Active”.

What about the Activity [33] of the same compound?
The Activity was “Dose-dependent effect”.

What about the “growth inhibition (GI)” value [34] of the same compound?
The value was “Dose-dependent effect”.

What about the IC50 ([34]; CT26, 24 h) of the same compound?
Its IC50 is 11.6 µM.

What about the Activity [35] of the same compound?
The Activity was 6.59%.

And the inhibition [36]?
The inhibition was “Dose-dependent effect”.

What about the inhibition in vivo at 1 mg/kg [37] of the same compound?
Its inhibition in vivo at 1 mg/kg is 82.5%.

What about the Activity [38] of the same compound?
Its Activity is “Dose-dependent effect”.

What about the Drug uptake [39] of the same compound?
Its Drug uptake is “Not Active”.

What about the “growth inhibition (GI)” value [40] of the same compound?
The value was “inactive”.

What about the Activity [41] of the same compound?
The Activity was 61.63%.
